Key:
Type in all cases: ADME, organism-based
[1] = test system: Homo sapiens; assay: Oral clearance of Rosiglitazone evaluated after oral or intravenous administration of C-14 Rosiglitazone Maleate; conditions: in vivo, dosed compound id 5, dosed compound name ROSIGLITAZONE MALEATE
[2] = (§1) Mean pharmacokinetic parameters for Rosiglitazone following single oral doses to 32 healthy fasted or fed subjects.; parameters: dose 8 mg, dose 2 mg, dose 1 mg, route oral; conditions: human, in vivo; dietary status Fasting, dose 1 mg, dosed compound id 50, dosed compound name ROSIGLITAZONE, gender male and female, regimen Single dose, route oral, tissue Plasma
[3] = test system: Homo sapiens; assay: as §1; parameters: dose 8 mg, dose 2 mg, dose 1 mg, route oral; conditions: in vivo, po, dosed compound id 50, dosed compound name ROSIGLITAZONE, gender male and female, regimen Single dose, tissue Plasma
[4] = dietary status Fasting, dose 2 mg
[5] = dietary status Fasting, dose 8 mg

Excretion ([1]; tissue Feaces): 23% | Excretion ([1]; tissue Urine): 64% | CL/F [2]: 50.5 mL/min | half-life [2]: 3.16 h | CL/F [3, 4]: 2.89 L/h | t1/2 [3, 4]: 3.15 h | CL/F [3, 5]: 2.85 L/h | t1/2 [3, 5]: 3.37 h | CL/F ([3]; dietary status Fed, dose 8 mg): 2.97 L/h | t1/2 ([3]; dietary status Fed, dose 8 mg): 3.59 h | AUC(0 to inf) ([3]; dietary status Fed): 2890 ng·h/mL | Cmax ([3]; dietary status Fed): 432 ng/mL
Structure (SMILES): CN(CCOc1ccc(CC2SC(=O)NC2=O)cc1)c1ccccn1.O=C(O)/C=C\C(=O)O (configuration not stated) [ROSIGLITAZONE MALEATE]
